Measured values as given in patent US6713449B1, “E2F activity inhibitory compounds” (Kyowa Hakko Kogyo Co., Ltd., priority 1996, dated 2004).
Where a SMILES comes first, the peptide text is derived from it. The star is where a group is joined. Lauroyl = CCCCCCCCCCCC(=O)*

Legend:
[1] = tested on: E2F dependent transcription (luciferase reporter cell strain E2F-1/Saos-2-1); assay: Assay of activity suppressing E2F responsive transcription (2): reporter cell strain E2F-1/Saos-2-1, Lipofect AMINE; type: cell-based, human; conditions: luciferase activity corrected with protein concentration
Source text: Assay of Activity Suppressing E2F Responsive Transcription (2)
Into the XhoI- and HindIII sites of luciferase reporter vector pluc2 with neomycin (G418) resistant gene [Eur. J. Haematol., 52, 73 (1994)] were inserted an SphI-HindIII fragment composed of the 200 base pairs in the core promoter region of the SV40 initial gene 128-0/5243-5171, base number according to “DNA Tumor Viruses, Molecular Biology of Tumor Viruses, 2nd Ed., Part 2 Revised, Edited by J. Tooze, Cold Spring Harbor Laboratory Press, 1982” and a fragment produced by annealing the following two synthetic oligonucleotides;
and then inserting the annealed product into the XhoI and Asp718 sites of the constructed luciferase vector pSE01uc2, reporter plasmid pE2FII-1luc2 was constructed.
By the following method, the plasmid was introduced into a human osteosarcoma-derived cell strain Saos-2 (ATCC HTB85), and the resulting cell was defined as E2F responsive reporter cell. 2×10^6 cells of the Saos-2 cultured in the presence of 5% CO2 in the medium A at 37° C. were suspended in K-PBS buffer (50 μl) [137 mM KCl, 2.7 mM NaCl, 8.1 mM Na2HPO4, 1.5 mM KH2PO4, 4 mM MgCl2], followed by addition of 1 μg/μl plasmid pE2FII-1 luc2 (4 μg) prepared above. […]

[2] = tested on: E2F responsive transcription (human cdc2 promoter-luciferase reporter pcdc21uc2); assay: Assay of activity suppressing E2F responsive transcription (1): human cdc2 promoter luciferase reporter in Saos-2; type: cell-based; conditions: 100 μM, electroporation, 40 hours, luciferase activity corrected with protein concentration
Experimental: Assay of Activity Suppressing E2F Responsive Transcription (1)
The promoter sequence of human cdc2 gene [EMBO J., 11, 1797 (1992)], which has been reported to have an endogenous E2F responsive sequence and to effect an E2F dependent transcription, was bound to the upstream of the firefly luciferase gene, which was designated as reporter gene.
Two micrograms (2 μg) of the plasmid pcdc21uc2 thus prepared were introduced, together with a test compound (100 μM), into 1×10^6 cells of Saos-2 by electroporation, in the same manner as in the Test Example 2. As in the Test Example 2, the resulting cells were inoculated into a cell culture dish of a 60-mm diameter for culturing in the presence of 5% CO2 at 37° C. for 40 hours, and thereafter, the cells were peeled off and recovered by centrifugation. […] The luciferase activity was assayed as follows; 300 μl of a substrate solution [25 mM glycylglycine buffer(pH 7.8), 15 mM MgSO4, 5 mM ATP, and 0.33 mM luciferin] was automatically injected into a luminometer LB953 (manufactured by Beltold Co.), to assay the luminescence for 10 seconds, which was defined as luciferase activity. […] Based on the luciferase activity (after correction with protein concentration) of a sample with no test compound contained in the reaction system, the inhibition ratio was calculated by the following equation. […]

[3] = tested on: human osteosarcoma-derived cell line Saos-2; assay: Assay of growth inhibiting activity on Saos-2 cell (test compound introduced by electric pulse); type: cell-based; conditions: 100 μM, 40 hours culture, viable cell number
Experimental: Assay of Growth Inhibiting Activity on Saos-2 cell
1×10^6 cells of a human osteosarcoma-derived cell line Saos-2 (ATCC HTB85) cultured in an RPMI 1640 culture medium containing 10% fetal calf serum (manufactured by Nissui Co.; referred to as medium A hereinbelow) in the presence of 5% CO2 at 37° C. were suspended in 50 μl of K-PBS buffer [137 mM KCl, 2.7 mM NaCl, 8.1 mM Na2HPO4, 1.5 mM KH2PO4, and 4 mM MgCl2], followed by addition of a test compound appropriately diluted with K-PBS to a final concentration of 100 μM. The suspension was transferred on a 0.2-cm width cuvette (manufactured by BIO-RAD Laboratories) for loading an electric pulse (conditions: an electric voltage=3 kV/cm, a pulse width=100 μ seconds, a pulse interval=one second, a pulse number=two) by using a Shimadzu cell fusion system SSH-1 [manufactured by Shimadzu Corporation]. After leaving the cuvette to stand for 10 minutes, the cells were recovered and suspended in 3 ml of the medium A, for inoculation on a cell culture dish of a 60-mm diameter(manufactured by Iwaki Glass Co.). […] Based on the cell number with no test compound under load of an electric pulse, the inhibition ratio was calculated by the following equation. […]

[4] = molecular target: T1, GST-E2F-1 and GST-DP-1 binding to 32P-labeled E2F probe (Homo sapiens, UniProt Q01094+Q14186); assay: Assay of E2F-DNA binding-inhibiting activity by gel shift assay; conditions: 30° C. 30 minutes
T1 construct: a part of human E2F-1 (101-st to 227-th amino acid residues from the N terminus) and GST; a part of the human DP-1 (84-th to 241-th amino acid residues from the N terminus) with GST; made in house; host or cells: Escherichia coli XL1-blue
Experimental: Assay of E2F-DNA Binding-inhibiting Activity by Gel Shift Assay (1-1) Expression of a Fusion Protein of E2F-1 and DP-1 in Escherichia Coli
So as to assay the activity to inhibit E2F-DNA binding, a fusion protein of glutathione-S-transferase (abbreviated as GST hereinbelow) with the genes of human E2F-1 [Cell, 70, 337 (1992); Cell, 70, 351 (1992)] and human DP-1 [Genes Dev., 7, 1850 (1993)] was prepared.
(1-2) Gel Shift Experiments by Using GST-E2F-1 and GST-DP-1
The following two oligonucleotides including the E2F binding sequence, which are complementary sequences to each other;
were added individually at a concentration of 10 μM into a solution comprising 10 mM MgCl2, 5 mM DTT and 50 mM Tris-HCl(pH 7.5), for treatment at 75° C. for 10 minutes, and the resulting solutions were left to stand at ambient temperature while gradually lowering the temperature for annealing. The resulting double-stranded DNA solution (10 μl) was kept in a reaction solution (30 μL) [50 mM Tris-HCl buffer(pH 7.5) containing 10 mM MgCl2, 5 mM dithiothreitol (DTT) 10 units of T4 polynucleotide kinase (manufactured by TaKaRa), 0.2 mCi [γ-^32P]ATP (7,000 Ci/mmol ATP, manufactured by Amersham Co.)] at 37° C. for 60 minutes, to label the 5′ terminus. By adding 0.5 M EDTA (2 μl) to the reaction solution, the reaction was terminated, and thereafter, unreactive [γ-^32P]ATP was removed by using a NickColumn G-50 (manufactured by Pharmacia Co.), to recover E2F probe. Into 20 mM HEPES buffer(pH 7.4)(20 μl) containing 40 mM KCl, 1 mM MgCl2, 0.1 mM EDTA, 0.1% Nonidet P-40, and 1 mM DTT were added 0.1 pmol of ^32P-labeled E2F probe, 100 ng of GST-E2F-1, 100 ng of GST-DP-1, 2 μg of calf thymus DNA and 0 to a 100 μM test compound, for reaction at 30° C. for 30 minutes. After the reaction, the reaction solution was electrophoresed by using 0.5×TBE [2.5 mM Tris-borate buffer, pH 8.3, 0.1 mM EDTA] as an electrophoresis buffer in 4% polyacrylamide gel. GST-E2F-1 and GST-DP-1 proteins were bound to the labeled E2F probe, so that the mobility thereof was reduced. Accordingly, the proteins were detected as upper bands. After electrophoresis, the gel was dried to assay the radioactivity in bands shifting upward, by using an image analyzer Type BAS2000 (manufactured by Fuji Film Co.). The radioactivity in each lane was assayed, to calculate the inhibition ratio, on the basis of the radioactivity of a sample with no test compound contained in the reaction system, according to the following equation.
A: radioactivity in a band shifted in the absence of any test compound
B: radioactivity in a band shifted in the presence of a test compound.

T1 sequence (Q01094 101-227): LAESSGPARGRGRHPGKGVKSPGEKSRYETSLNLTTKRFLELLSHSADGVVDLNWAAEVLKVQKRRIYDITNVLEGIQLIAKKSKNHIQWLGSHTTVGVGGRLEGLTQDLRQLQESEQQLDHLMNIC
T1 sequence (Q14186 84-241): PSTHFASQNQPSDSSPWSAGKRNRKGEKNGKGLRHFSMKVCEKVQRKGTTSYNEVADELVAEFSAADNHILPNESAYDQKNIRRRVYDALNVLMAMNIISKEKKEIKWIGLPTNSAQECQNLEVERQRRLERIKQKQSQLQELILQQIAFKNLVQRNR

## Ac-Ala-Arg-Gly-Arg-Gly-Arg-His-Pro-Gly-Lys-Gly-Val-Lys-Ser-Pro-Gly-Glu-Arg-Ser-Arg-Tyr-Glu-Thr-Ser-Leu-Asn-Leu-Thr-Thr-Lys-Arg-Phe-Leu-Glu-Leu-NH2 (Ac-ARGRGRHPGKGVKSPGERSRYETSLNLTTKRFLEL-NH2) [Compound Ic-1]
[1]; 1 μM
  Inhibition ratio (%): 17%
[1]; 10 μM
  Inhibition ratio (%): 28%

## Ac-NESAYDQKNIRRRVYDALNVLMAMNIIS-NH2 [Compound Ib-1]
[2]
  Inhibition ratio (%): 83%
[3]
  Inhibition ratio (%): 73%
[4]; 1 μM test compound
  Inhibition ratio (%): 13.7%
[4]; 10 μM test compound
  Inhibition ratio (%): 52.9%
[4]; 100 μM test compound
  Inhibition ratio (%): 87.6%

## CCCCCCCCCCCC(=O)N[C@@H](CC(N)=O)C(=O)N[C@@H](CCC(=O)O)C(=O)N[C@@H](CO)C(=O)N[C@@H](C)C(=O)N[C@@H](Cc1ccc(O)cc1)C(=O)N[C@@H](CC(=O)O)C(=O)N[C@@H](CCC(N)=O)C(=O)N[C@@H](CCCCN)C(=O)N[C@@H](CC(N)=O)C(=O)N[C@H](C(=O)N[C@@H](CCCNC(=N)N)C(=O)N[C@@H](CCCNC(=N)N)C(=O)N[C@@H](CCCNC(=N)N)C(=O)N[C@H](C(=O)N[C@@H](Cc1ccc(O)cc1)C(=O)N[C@@H](CC(=O)O)C(=O)N[C@@H](C)C(=O)N[C@@H](CC(C)C)C(=O)N[C@@H](CC(N)=O)C(=O)N[C@H](C(=O)N[C@@H](CC(C)C)C(=O)N[C@@H](CCSC)C(=O)N[C@@H](C)C(=O)N[C@@H](CCSC)C(=O)N[C@@H](CC(N)=O)C(=O)N[C@H](C(=O)N[C@H](C(=O)N[C@@H](CO)C(N)=O)[C@@H](C)CC)[C@@H](C)CC)C(C)C)C(C)C)[C@@H](C)CC [Compound Ib-3] (Lauroyl-NESAYDQKNIRRRVYDALNVLMAMNIIS-NH2)
[4]; 25 μM test compound
  Inhibition ratio (%): 17.9%
[4]; 100 μM test compound
  Inhibition ratio (%): 49.5%
